According to PubChem BioAssay AID1963852 (Molecular Pharmacology Branch, DTP, NCI, 2024):
pIC50: −log10 of the molar value.

Tested on: 282377-053-R-J1-PDC complex spheroid viability
Experiment: Anticancer human tumor 282377-053-R-J1-PDC patient-derived colon adenocarcinoma cell line growth inhibition [POLQ]
Details: for pIC50: curve of first compound; for viability, T/C: stronger effect = lower value
Description: Multicellular complex tumor spheroid response to Polymerase (POL) inhibitors (novobiocin, ART-558, RP6685) in combination with a variety of drugs and investigational agents in selected tumor cell lines
The POL inhibitors (novobiocin, ART-558, and RP6685) were evaluated both individually and in combination with standard of care and investigational anticancer small molecules within a complex spheroid model of solid tumors. . Complex spheroids include a stromal component modeled by human endothelial cells (HUVEC) and fibroblasts modeled by human mesenchymal stem cells (MSCs). The concentration ranges selected for each drug and investigational agent were based upon clinically achievable concentrations if the clinical Cmax of the agent was known.
Compounds. The drugs and investigational agents: novobiocin (NSC847541), ART-558 (NSC835418), RP-6685 (NSC848927), peposertib (NSC802822), ceralasertib (NSC780249), elimusertib (NSC800525), camonsertib (NSC841442), AZD-1390 (NSC803789), olaparib (NSC753686), talazoparib (NSC767125), rucaparib (NSC756644), sotorasib (NSC818433), MRTX-1133 (NSC836407), SN-38 (NSC673596), topotecan (NSC609699), epotoside (NSC141540), doxorubicin (NSC123127), gemcitabine (NSC613327), 5-fluorouracil (NSC19893), paclitaxel (NSC125973), vemurafenib (NSC761431), MSA-2 (NSC828583), SN-011 (NSC837082), adavosertib (NSC754352), prexasertib (NSC758257), carboplatin (NSC241240) and oxaliplatin (NSC266046), were obtained from the National Cancer Institute (NCI) Developmental Therapeutics Program Chemical Repository (21). The FDA-approved anticancer drug set is available from the Developmental Therapeutics Program at https://dtp.cancer.gov/organization/dscb/obtaining/. […] The stock solutions were prepared in dimethyl sulfoxide (DMSO, Sigma-Aldrich, St. Louis, MO, cat. D2650), except for the platinum compounds which were prepared in saline (Quality Biological, Gaithersburg, MD, cat. 114-055-101), at 800-fold the tested concentration and stored at -70 degrees C prior to their use. All drugs and investigational agents were tested over a range starting from a high concentration at or near the clinical Cmax and decreasing in half-log increments. If the clinical Cmax for an agent had not been determined, the highest concentration tested was 10 microM, except for SN-38, which was tested at a high concentration of 1 microM.
Cell Culture. All cells were maintained in an incubator at 37 degrees C and 5% CO2 with 95% humidity. The PDC lines were cultured according to standard operating procedures established by the NCI PDMR (https://pdmr.cancer.gov). Table 3 of the manuscript, lists the cell lines along with the number of the three cell types plated to form the mct-spheroids and media for tumor cell growth. After thawing, all PDC lines, except 997537-175-T-J1-PDC and 415267-285-R-J2-PDC, were cultured in Matrigel-coated flasks prepared with a working solution of 1X Ham's F-12 nutrient mix, without supplementation (Thermo Fisher Scientific, cat. 11765054), 100 U/mL penicillin-streptomycin (Thermo Fisher Scientific, cat. 15140122), and 2.5% Matrigel (Corning Inc., Corning, NY, cat. 354248) for the first three passages. The two PDC lines 997537-175-T-J1-PDC and 415267-285-R-J2-PDC were cultured on uncoated flasks. The 857933-349-R-J2-PDC line was cultured in 6C/Colon 1B media containing advanced DMEM/F-12 (Thermo Fisher Scientific, cat. 12634028), 10 mM HEPES (Thermo Fisher Scientific, cat. 15630080), 1X GlutaMAX supplement (Thermo Fisher Scientific, cat. 35050061), 0.1 mg/mL primocin (InvivoGen, San Diego, CA, cat. ant-pm-2), 10% defined fetal bovine serum, heat inactivated (HyClone Laboratories Inc., Logan, UT, cat. SH30070.03HI), 50% L-WRN conditioned media (ATCC, cat. CRL-3276), 1.25 mM N-Acetyl-L-cysteine (Sigma-Aldrich, cat. A9165), 10 mM nicotinamide (Sigma-Aldrich, cat. N0636), 1X B-27 supplement (Thermo Fisher Scientific, cat. 17504044), 1X N-2 supplement (Thermo Fisher Scientific, cat. […]

[1] = second compound 0.0316 µM, first compound 0.0316 µM
[2] = second compound 0.0316 µM, first compound 0.1 µM
[3] = second compound 0.1 µM, first compound 0.0316 µM
[4] = second compound 0.1 µM, first compound 0.1 µM
[5] = second compound 0.316 µM, first compound 0.0316 µM
[6] = second compound 0.316 µM, first compound 0.1 µM
[7] = second compound 1 µM, first compound 0.0316 µM
[8] = second compound 1 µM, first compound 0.1 µM
[9] = second compound 3.16 µM, first compound 0.0316 µM
[10] = second compound 3.16 µM, first compound 0.1 µM
[11] = second compound 10 µM, first compound 0.0316 µM
[12] = second compound 10 µM, first compound 0.1 µM
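Also: spheroids exposed to compounds for seven days.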
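For viability, T/C in this document: 100% = DMSO vehicle control viability.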

With `COc1cccc2c1C(=O)c1c(O)c3c(c(O)c1C2=O)CC(O)(C(=O)CO)CC3OC1CC(N)C(O)C(C)O1` (centres undefined) + COC1C(OC(N)=O)C(O)C(Oc2ccc3c(O)c(NC(=O)c4ccc(O)c(CC=C(C)C)c4)c(=O)oc3c2C)OC1(C)C the pIC50 (second compound 0.0316 µM) was 6.56, the pIC50 (second compound 0.1 µM) was 6.49 and the pIC50 (second compound 0.316 µM) was 6.55. It also gave a pIC50 (second compound 1 µM) of 6.41, a pIC50 (second compound 3.16 µM) of 6.54 and a pIC50 (second compound 10 µM) of 6.42. It also gave a viability, T/C [1] of 92.3%, a viability, T/C [2] of 81% and a viability, T/C (second compound 0.0316 µM, first compound 0.316 µM) of 43.9%. The viability, T/C (second compound 0.0316 µM, first compound 1 µM) was 17.5%, the viability, T/C (second compound 0.0316 µM, first compound 3.16 µM) was 1.11% and the viability, T/C (second compound 0.0316 µM, first compound 10 µM) was 2.81%. The viability, T/C [3] was 117%, the viability, T/C [4] was 82.7% and the viability, T/C (second compound 0.1 µM, first compound 0.316 µM) was 57.6%. For the same compound, the viability, T/C (second compound 0.1 µM, first compound 1 µM) was 16.5%, the viability, T/C (second compound 0.1 µM, first compound 3.16 µM) was 0.71% and the viability, T/C (second compound 0.1 µM, first compound 10 µM) was 2.97%. It also gave a viability, T/C [5] of 95.5%, a viability, T/C [6] of 84.9% and a viability, T/C (second compound 0.316 µM, first compound 0.316 µM) of 44.9%. The viability, T/C (second compound 0.316 µM, first compound 1 µM) was 16.1%, the viability, T/C (second compound 0.316 µM, first compound 3.16 µM) was 0.67% and the viability, T/C (second compound 0.316 µM, first compound 10 µM) was 2.69%. It also gave a viability, T/C [7] of 97.1%, a viability, T/C [8] of 88.6% and a viability, T/C (second compound 1 µM, first compound 0.316 µM) of 58%. For the same compound, the viability, T/C (second compound 1 µM, first compound 1 µM) was 14.3%, the viability, T/C (second compound 1 µM, first compound 3.16 µM) was 1.36% and the viability, T/C (second compound 1 µM, first compound 10 µM) was 2.91%. The viability, T/C [9] was 90.2%, the viability, T/C [10] was 88.9% and the viability, T/C (second compound 3.16 µM, first compound 0.316 µM) was 44.8%. For the same compound, the viability, T/C (second compound 3.16 µM, first compound 1 µM) was 13.7%, the viability, T/C (second compound 3.16 µM, first compound 3.16 µM) was 0.83% and the viability, T/C (second compound 3.16 µM, first compound 10 µM) was 2.03%. The viability, T/C [11] was 84.4%, the viability, T/C [12] was 76.8% and the viability, T/C (second compound 10 µM, first compound 0.316 µM) was 56.8%. The viability, T/C (second compound 10 µM, first compound 1 µM) was 16.3%, the viability, T/C (second compound 10 µM, first compound 3.16 µM) was 2.09% and the viability, T/C (second compound 10 µM, first compound 10 µM) was 3.61%.
`Cn1ncnc1[C@H]1c2n[nH]c(=O)c3cc(F)cc(c23)N[C@@H]1c1ccc(F)cc1` + COC1C(OC(N)=O)C(O)C(Oc2ccc3c(O)c(NC(=O)c4ccc(O)c(CC=C(C)C)c4)c(=O)oc3c2C)OC1(C)C was tested, and the pIC50 (second compound 0.0316 µM) was less than 7.00, the pIC50 (second compound 0.1 µM) was less than 7.00 and the pIC50 (second compound 0.316 µM) was less than 7.00. The pIC50 (second compound 1 µM) was less than 7.00, the pIC50 (second compound 3.16 µM) was less than 7.00 and the pIC50 (second compound 10 µM) was less than 7.00. For the same compound, the viability, T/C (second compound 0.0316 µM, first compound 0.000316 µM) was 126%, the viability, T/C (second compound 0.0316 µM, first compound 0.001 µM) was 108% and the viability, T/C (second compound 0.0316 µM, first compound 0.00316 µM) was 101%. For the same compound, the viability, T/C (second compound 0.0316 µM, first compound 0.01 µM) was 98.1%, the viability, T/C [1] was 103% and the viability, T/C [2] was 97.4%. It also gave a viability, T/C (second compound 0.1 µM, first compound 0.000316 µM) of 106%, a viability, T/C (second compound 0.1 µM, first compound 0.001 µM) of 122% and a viability, T/C (second compound 0.1 µM, first compound 0.00316 µM) of 92%. It also gave a viability, T/C (second compound 0.1 µM, first compound 0.01 µM) of 100%, a viability, T/C [3] of 118% and a viability, T/C [4] of 103%. The viability, T/C (second compound 0.316 µM, first compound 0.000316 µM) was 97.5%, the viability, T/C (second compound 0.316 µM, first compound 0.001 µM) was 81.7% and the viability, T/C (second compound 0.316 µM, first compound 0.00316 µM) was 85.4%. For the same compound, the viability, T/C (second compound 0.316 µM, first compound 0.01 µM) was 111%, the viability, T/C [5] was 102% and the viability, T/C [6] was 132%. The viability, T/C (second compound 1 µM, first compound 0.000316 µM) was 105%, the viability, T/C (second compound 1 µM, first compound 0.001 µM) was 111% and the viability, T/C (second compound 1 µM, first compound 0.00316 µM) was 111%. It also gave a viability, T/C (second compound 1 µM, first compound 0.01 µM) of 90.5%, a viability, T/C [7] of 118% and a viability, T/C [8] of 98.1%. The viability, T/C (second compound 3.16 µM, first compound 0.000316 µM) was 88.2%, the viability, T/C (second compound 3.16 µM, first compound 0.001 µM) was 106% and the viability, T/C (second compound 3.16 µM, first compound 0.00316 µM) was 92.1%. It also gave a viability, T/C (second compound 3.16 µM, first compound 0.01 µM) of 99.5%, a viability, T/C [9] of 107% and a viability, T/C [10] of 126%. For the same compound, the viability, T/C (second compound 10 µM, first compound 0.000316 µM) was 112%, the viability, T/C (second compound 10 µM, first compound 0.001 µM) was 98.5% and the viability, T/C (second compound 10 µM, first compound 0.00316 µM) was 104%. For the same compound, the viability, T/C (second compound 10 µM, first compound 0.01 µM) was 102%, the viability, T/C [11] was 105% and the viability, T/C [12] was 105%.
